Test results taken from US5643873A, “Peptides and compounds that bind selectins including endothelial leukocyte adhesion molecule 1” (Affymax Technologies N.V., priority 1994, dated 1997).
Values joined by “and” are separate entries in the source; they are usually repeats but may differ in a detail not shown here. Equal values may be shown once. Square brackets hold non-standard residues; d marks the D form. Ends that are not written are not given here. Peptide text beside a SMILES is read from it. Nle = CCCC[C@H](N)C(=O)O

molecular target: T1, E-selectin (Homo sapiens, UniProt P16581); experiment: HL60 cell adhesion assay (labeled HL60 cells adhering to immobilized E-selectin); assay type: cell-based; set-up: truncated form comprising the complete extracellular domain (amino acids 1 through 554); made in house; conditions: concentration reducing by 50% the binding of HL60 cells to immobilized E-selectin
T1 sequence (P16581 22-554): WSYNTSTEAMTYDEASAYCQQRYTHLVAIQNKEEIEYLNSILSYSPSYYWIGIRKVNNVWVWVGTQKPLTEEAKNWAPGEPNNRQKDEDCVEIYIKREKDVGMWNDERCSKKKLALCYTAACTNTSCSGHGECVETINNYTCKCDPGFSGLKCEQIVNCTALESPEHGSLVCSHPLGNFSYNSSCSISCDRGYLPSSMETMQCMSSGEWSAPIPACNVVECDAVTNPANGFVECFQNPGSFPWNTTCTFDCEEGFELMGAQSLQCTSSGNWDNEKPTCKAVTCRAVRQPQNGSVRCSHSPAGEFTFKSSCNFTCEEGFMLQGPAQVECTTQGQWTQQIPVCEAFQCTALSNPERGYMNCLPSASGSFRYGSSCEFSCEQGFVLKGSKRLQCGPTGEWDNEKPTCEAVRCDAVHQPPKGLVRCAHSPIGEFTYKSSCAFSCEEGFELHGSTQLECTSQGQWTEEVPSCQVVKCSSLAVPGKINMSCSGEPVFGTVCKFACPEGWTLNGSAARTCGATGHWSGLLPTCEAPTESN
Description: By comparing test wells with control wells (no receptor), one can determine whether a peptide binds to E-selectin specifically. […] In this regard, HL60 cells are known to contain surface glycoconjugates which bind to E-selectin.
Peptides that block the binding of labeled HL60 cells to E-selectin are then evaluated to determine their IC50 -HL60 in the manner also specified in Example 1.
The assay requires HL60 cells labeled with tritiated thymidine. To label the cells, about 10 million HL60 cells are collected by centrifugation (2500 RPM for 3 minutes) and resuspended in 15 mL of DMEM/F12 plus 5% fetal calf serum containing 2 μCi/mL of tritiated thymidine (Amersham). The cells are then placed in a T75 flask and incubated at 37° C. for 24 hours. The cells are then collected by centrifugation, washed twice with RPMI/HEPES/0.1% FCS, and resuspended in the same solution at a concentration of about one to two million cells per mL. About 100 μL of this cell preparation are used per well of a 96-well microtiter dish in the assay.
The wells of the microtiter dish were first coated with the anti-receptor immobilizing antibody, an anti-HPAP-tail antibody, using about 2.5 μg of antibody per well. […]
After the test compound incubation period, 100 μL of labeled HL60 cells were added to each well, and the microtiter plate was incubated at 4° C. for 30 minutes. […] After this incubation, aliquots were removed from each well and placed in scintillation vials; scintillation fluid was added to each vial; and the radioactivity in each aliquot was quantitated by liquid scintillation counting. […]
The concentration of any peptide or peptide mimetic required to reduce by 50% the binding of HL60 cells to E-selectin as per the assay of Example 1 is determined by the following procedure. […] (SEQ ID NO 23), was determined. […]

| IC50 | Compound |
| --- | --- |
| 50 µM and 100 µM and ~50 µM | HITWDQLWNVMN |
| < 10 µM and 10 µM | DITWDQLWDLMK |

same assay, conditions: peptide at 200 μM, FIG. 1

| blocking of HL60 cell binding that occurred in the absence of added compound | Compound |
| --- | --- |
| over 80% | HITWDQLWNVMN |

molecular target: T1, E-selectin; experiment: IC50-standard competitive binding assay (radiolabeled standard peptide on immobilized E-selectin); set-up: truncated form comprising the complete extracellular domain (amino acids 1 through 554); made in house; a baculovirus soluble form is also mentioned as an option; conditions: inhibits 50% of binding of radiolabeled standard […] to E-selectin
Description: This latter peptide has strong binding affinity to E-selectin and, accordingly, was used as a standard in a competitive binding assay with candidate peptides and peptide mimetics in order to determine relative binding affinities for E-selectin.
This example measures the concentration of peptide or peptide mimetic required to inhibit 50% of the binding of a radiolabeled standard to E-selectin and the resulting IC50 value is referred to as the "IC50 -standard". In this example, the standard corresponds to the synthetic peptide […] (SEQ ID NO 114) which comprises a known initial seven amino acid group which is a substrate for protein kinase A followed by a 2 amino acid spacer and a 12 amino acid sequence which corresponds to the peptide identified by SEQ ID NO 3 which has an IC50 -HL60 of 10 μM. The peptide is radiolabeled by phosphorylation using either […] or ^33 P phosphate by conventional methods via the protein kinase A. The example is a competitive assay in which 6.5 picograms at 1400 Ci/mmol (65000 cpm) of radiolabelled standard (1400 Ci/mmol) is combined with a titered amount of candidate peptide or peptide mimetic in a constant volume of 30 μL. The combined solution is then added to E-selectin immobilized onto a solid surface in the manner described above. The resulting mixture is then incubated for about 120 minutes to permit equilibrium binding to be achieved. Afterwards, unbound materials are separated from bound materials by conventional methods (e.g., washing) and the amount of the […] bound to E-selectin is determined by scintillation counting. The assay is repeated over several concentrations of candidate peptide or peptide mimetic and the results are entered into a graph whose y axis is the amount of radiolabeled standard bound to E-selectin (measured in cpm) and the x axis is the amount of candidate peptide or peptide mimetic. The results are graphically extrapolated to determine the concentration at which the peptide or peptide mimetic will reduce by 50% the amount of radiolabeled standard bound to E-selectin. This concentration is taken as the IC50 -standard for that peptide or peptide mimetic.

| IC50 [µM] | Compound |
| --- | --- |
| 0.065 | CCCC[C@H](NC(=O)[C@H](CC(C)C)NC(=O)[C@H](CC(=O)O)NC(=O)[C@H](Cc1c[nH]c2ccccc12)NC(=O)[C@H](CC(C)C)NC(=O)[C@H](CCC(N)=O)NC(=O)[C@H](CC(=O)O)NC(=O)[C@H](Cc1c[nH]c2ccccc12)NC(=O)[C@@H](NC(=O)[C@@H](NC(=O)[C@@H](N)CCC(N)=O)[C@@H](C)CC)[C@@H](C)O)C(=O)N[C@@H](CCCCN)C(=O)O (H-QITWDQLWDL[Nle]K-OH) |
| 0.022 | DITWDQLWDLMK-NH2 |
| 0.042 | CCCC[C@H](NC(=O)[C@H](CC(C)C)NC(=O)[C@H](CC(=O)O)NC(=O)[C@H](Cc1c[nH]c2ccccc12)NC(=O)[C@H](CC(C)C)NC(=O)[C@H](CCC(N)=O)NC(=O)[C@H](CC(=O)O)NC(=O)[C@H](Cc1c[nH]c2ccccc12)NC(=O)[C@@H](NC(=O)[C@@H](NC(=O)[C@H](CC(=O)O)NC(=O)CNC(=O)[C@@H](N)CC(=O)O)[C@@H](C)CC)[C@@H](C)O)C(=O)N[C@@H](CCCCN)C(=O)O (H-DGDITWDQLWDL[Nle]K-OH) |
| 0.003 | DITWDQLWDLMK |
| 33 | CC[C@H](C)[C@H](NC(=O)[C@@H](N)CC(=O)O)C(=O)N[C@H](C(=O)N[C@@H](Cc1c[nH]c2ccccc12)C(=O)N[C@@H](CC(=O)O)C(=O)N[C@@H](CCC(N)=O)C(=O)N[C@@H](CC(C)C)C(=O)N[C@@H](Cc1c[nH]c2ccccc12)C(=O)N[C@@H](CC(=O)O)C(=O)N[C@H](CC(C)C)C(=O)N[C@@H](CCSC)C(=O)N[C@@H](CCCCN)C(=O)O)[C@@H](C)O (H-DITWDQLWD[dL]MK-OH) |
| 0.004 | DGDITWDQLWDLMK |
| 0.027 | CC[C@@H](C)[C@@H](NC(=O)[C@@H](N)CC(=O)O)C(=O)N[C@H](C(=O)N[C@@H](Cc1c[nH]c2ccccc12)C(=O)N[C@@H](CC(=O)O)C(=O)N[C@@H](CCC(N)=O)C(=O)N[C@@H](CC(C)C)C(=O)N[C@@H](Cc1c[nH]c2ccccc12)C(=O)N[C@@H](CC(=O)O)C(=O)N[C@@H](CC(C)C)C(=O)N[C@@H](CCSC)C(=O)N[C@@H](CCCCN)C(=O)O)[C@@H](C)O (H-D[dI]TWDQLWDLMK-OH) |
| 0.034 | CC[C@H](C)[C@H](NC(=O)[C@@H](N)CC(=O)O)C(=O)N[C@H](C(=O)N[C@@H](Cc1c[nH]c2ccccc12)C(=O)N[C@H](CC(=O)O)C(=O)N[C@@H](CCC(N)=O)C(=O)N[C@@H](CC(C)C)C(=O)N[C@@H](Cc1c[nH]c2ccccc12)C(=O)N[C@@H](CC(=O)O)C(=O)N[C@@H](CC(C)C)C(=O)N[C@@H](CCSC)C(=O)N[C@@H](CCCCN)C(=O)O)[C@@H](C)O (H-DITW[dD]QLWDLMK-OH) |
| 0.065 | AEKWDQLWHVMNPAESQ |
| 0.035 | RNMSWLELWEHMK |
| 0.006 | DYTWFELWDMMQ |
| 0.425 | CCCC[C@H](NC(=O)[C@H](CCCC)NC(=O)[C@H](CC(N)=O)NC(=O)[C@H](Cc1c[nH]c2ccccc12)NC(=O)[C@H](CC(C)C)NC(=O)[C@H](CCC(N)=O)NC(=O)[C@H](C)NC(=O)[C@H](Cc1c[nH]c2ccccc12)NC(=O)[C@@H](NC(=O)[C@@H](NC(=O)[C@@H](N)CC(=O)O)[C@@H](C)CC)[C@@H](C)O)C(=O)N[C@@H](CC(N)=O)C(=O)O (H-DITWAQLWN[Nle][Nle]N-OH) |
| 0.007 | DITWDELWKIMN |
| 2.7 | CC[C@H](C)[C@H](NC(=O)[C@@H](N)CC(=O)O)C(=O)N[C@@H](C(=O)N[C@@H](Cc1c[nH]c2ccccc12)C(=O)N[C@@H](CC(=O)O)C(=O)N[C@@H](CCC(N)=O)C(=O)N[C@@H](CC(C)C)C(=O)N[C@@H](Cc1c[nH]c2ccccc12)C(=O)N[C@@H](CC(=O)O)C(=O)N[C@@H](CC(C)C)C(=O)N[C@@H](CCSC)C(=O)N[C@@H](CCCCN)C(=O)O)[C@H](C)O (H-DI[dT]WDQLWDLMK-OH) |
| 0.023 | CCCC[C@H](NC(=O)[C@H](CC(C)C)NC(=O)[C@H](CC(=O)O)NC(=O)[C@H](Cc1c[nH]c2ccccc12)NC(=O)[C@H](CC(C)C)NC(=O)[C@H](CCC(N)=O)NC(=O)[C@H](CC(=O)O)NC(=O)[C@H](Cc1c[nH]c2ccccc12)NC(=O)[C@@H](NC(=O)[C@@H](NC(=O)[C@@H](N)CC(=O)O)[C@@H](C)CC)[C@@H](C)O)C(=O)N[C@@H](CCCCN)C(=O)O (H-DITWDQLWDL[Nle]K-OH) |
| 0.028 | HITWDQLWRIMT |
| 0.025 | CC[C@H](C)[C@H](NC(=O)[C@H](N)CC(=O)O)C(=O)N[C@H](C(=O)N[C@@H](Cc1c[nH]c2ccccc12)C(=O)N[C@@H](CC(=O)O)C(=O)N[C@@H](CCC(N)=O)C(=O)N[C@@H](CC(C)C)C(=O)N[C@@H](Cc1c[nH]c2ccccc12)C(=O)N[C@@H](CC(=O)O)C(=O)N[C@@H](CC(C)C)C(=O)N[C@@H](CCSC)C(=O)N[C@@H](CCCCN)C(=O)O)[C@@H](C)O (H-[dD]ITWDQLWDLMK-OH) |
| 0.016 | DYSWHDLWEMMS |
| 1 | CC[C@H](C)[C@H](NC(=O)[C@@H](N)CC(=O)O)C(=O)N[C@H](C(=O)N[C@@H](Cc1c[nH]c2ccccc12)C(=O)N[C@@H](CC(=O)O)C(=O)N[C@@H](CCC(N)=O)C(=O)N[C@@H](CC(C)C)C(=O)N[C@@H](Cc1c[nH]c2ccccc12)C(=O)N[C@@H](CC(=O)O)C(=O)N[C@@H](CC(C)C)C(=O)N[C@@H](CCSC)C(=O)N[C@H](CCCCN)C(=O)O)[C@@H](C)O (H-DITWDQLWDLM[dK]-OH) |
| 0.012 | QITWAQLWNMMK |

same assay, conditions: inhibits 50% of binding of radiolabeled standard to E-selectin

| IC50 [µM] | Compound |
| --- | --- |
| 12 | TWDQLWDLMK |
| 0.011 | ITWDQLWDLMK |
